Measured values from US6358885B1, “Substituted phenylheterocyclic herbicides” (Mississippi State University, priority 1992, dated 2002).

Key:
Experiment in all cases: Test B preemergence/postemergence greenhouse plant response rating 0 to 10
wild oat = type: in vivo, Avena fatua; details: for Plant response rating, Wild oat: 0 to 10 scale
Method in brief: (§1)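 Postemergence treatment of plants two to eighteen cm tall ran alongside preemergence treatment of planted seed, each using compound in a non-phytotoxic solvent.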

cotton = type: in vivo, Gossypium hirsutum; details: for Plant response rating, Cotton: 0 to 10 scale
Method in brief: as §1

cheatgrass = type: in vivo, Bromus secalinus; details: for Plant response rating, Cheatgrass: 0 to 10 scale
Method in brief: as §1

soybean = type: in vivo, Glycine max; details: for Plant response rating, Soybean: 0 to 10 scale
Method in brief: as §1

giant foxtail = type: in vivo, Setaria faberii; details: for Plant response rating, Giant foxtail: 0 to 10 scale
Method in brief: as §1

sorghum = type: in vivo, Sorghum bicolor; details: for Plant response rating, Sorghum: 0 to 10 scale
Method in brief: as §1

wild buckwheat = type: in vivo, Polygonum convolvulus; details: for Plant response rating, Wild buckwheat: 0 to 10 scale
Method in brief: as §1

crabgrass = type: in vivo, Digitaria spp.; details: for Plant response rating, Crabgrass: 0 to 10 scale
Method in brief: as §1

blackgrass = type: in vivo, Alopecurus myosuroides; details: for Plant response rating, Blackgrass: 0 to 10 scale
Method in brief: as §1

corn = type: in vivo, Zea mays; details: for Plant response rating, Corn: 0 to 10 scale
Method in brief: as §1

sugar beet = type: in vivo, Beta vulgaris; details: for Plant response rating, Sugar beet: 0 to 10 scale
Method in brief: as §1

morningglory = type: in vivo, Ipomoea hederacea; details: for Plant response rating, Morningglory: 0 to 10 scale
Method in brief: as §1

barley = type: in vivo, Hordeum vulgare; details: for Plant response rating, Barley: 0 to 10 scale
Method in brief: as §1

rice = type: in vivo, Oryza sativa; details: for Plant response rating, Rice: 0 to 10 scale
Method in brief: as §1

velvetleaf = type: in vivo, Abutilon theophrasti; details: for Plant response rating, Velvetleaf: 0 to 10 scale
Method in brief: as §1

cocklebur = type: in vivo, Xanthium pensylvanicum; details: for Plant response rating, Cocklebur: 0 to 10 scale
Method in brief: as §1

wheat = type: in vivo, Triticum aestivum; details: for Plant response rating, Wheat: 0 to 10 scale
Method in brief: as §1

lambsquarters = type: in vivo, Chenopodium album; details: for Plant response rating, Lambsquarter: 0 to 10 scale
Method in brief: as §1

barnyardgrass = type: in vivo, Echinochloa crus-galli; details: for Plant response rating, Barnyardgrass: 0 to 10 scale
Method in brief: as §1

rape = type: in vivo, Brassica napus; details: for Plant response rating, Rape: 0 to 10 scale
Method in brief: as §1

bedstraw = type: in vivo, Galium aparine; details: for Plant response rating, Bedstraw: 0 to 10 scale
Method in brief: as §1

chickweed = type: in vivo, Stellaria media; details: for Plant response rating, Chickweed: 0 to 10 scale
Method in brief: as §1

purple nutsedge = type: in vivo, Cyperus rotundus; details: for Plant response rating, Nutsedge: 0 to 10 scale
Method in brief: as §1

With CCOC(=O)c1cc(-c2nn3c(c2Cl)CCCC3)c(F)cc1Cl [Compound 78] the “Plant response rating, Wild oat” value (wild oat; POSTEMERGENCE, Rate 50 g/ha) was 3, the “Plant response rating, Wild oat” value (wild oat; PREEMERGENCE, Rate 50 g/ha) was 3 and the “Plant response rating (0 to 10 scale), Wild oat” value (wild oat; PREEMERGENCE, Rate 200 g/ha) was 6. The “Plant response rating, Wild oat” value (wild oat; Rate 200 g/ha, POSTEMERGENCE) was 5, the “Plant response rating, Cotton” value (cotton; POSTEMERGENCE, Rate 50 g/ha) was 9 and the “Plant response rating, Cotton” value (cotton; PREEMERGENCE, Rate 50 g/ha) was 0. The “Plant response rating (0 to 10 scale), Cotton” value (cotton; PREEMERGENCE, Rate 200 g/ha) was 2, the “Plant response rating, Cotton” value (cotton; Rate 200 g/ha, POSTEMERGENCE) was 10 and the “Plant response rating, Cheatgrass” value (cheatgrass; POSTEMERGENCE, Rate 50 g/ha) was 2. For the same compound, the “Plant response rating, Cheatgrass” value (cheatgrass; PREEMERGENCE, Rate 50 g/ha) was 2, the “Plant response rating (0 to 10 scale), Cheatgrass” value (cheatgrass; PREEMERGENCE, Rate 200 g/ha) was 4 and the “Plant response rating, Cheatgrass” value (cheatgrass; Rate 200 g/ha, POSTEMERGENCE) was 7. The “Plant response rating, Soybean” value (soybean; POSTEMERGENCE, Rate 50 g/ha) was 10, the “Plant response rating, Soybean” value (soybean; PREEMERGENCE, Rate 50 g/ha) was 0 and the “Plant response rating (0 to 10 scale), Soybean” value (soybean; PREEMERGENCE, Rate 200 g/ha) was 1. For the same compound, the “Plant response rating, Soybean” value (soybean; Rate 200 g/ha, POSTEMERGENCE) was 9, the “Plant response rating, Giant foxtail” value (giant foxtail; POSTEMERGENCE, Rate 50 g/ha) was 4 and the “Plant response rating, Giant foxtail” value (giant foxtail; PREEMERGENCE, Rate 50 g/ha) was 2. The “Plant response rating (0 to 10 scale), Giant foxtail” value (giant foxtail; PREEMERGENCE, Rate 200 g/ha) was 9, the “Plant response rating, Giant foxtail” value (giant foxtail; Rate 200 g/ha, POSTEMERGENCE) was 6 and the “Plant response rating, Sorghum” value (sorghum; POSTEMERGENCE, Rate 50 g/ha) was 4. The “Plant response rating, Sorghum” value (sorghum; PREEMERGENCE, Rate 50 g/ha) was 0, the “Plant response rating (0 to 10 scale), Sorghum” value (sorghum; PREEMERGENCE, Rate 200 g/ha) was 3 and the “Plant response rating, Sorghum” value (sorghum; Rate 200 g/ha, POSTEMERGENCE) was 7. The “Plant response rating, Wild buckwheat” value (wild buckwheat; POSTEMERGENCE, Rate 50 g/ha) was 10, the “Plant response rating, Wild buckwheat” value (wild buckwheat; PREEMERGENCE, Rate 50 g/ha) was 9 and the “Plant response rating (0 to 10 scale), Wild buckwheat” value (wild buckwheat; PREEMERGENCE, Rate 200 g/ha) was 10. The “Plant response rating, Wild buckwheat” value (wild buckwheat; Rate 200 g/ha, POSTEMERGENCE) was 10, the “Plant response rating, Crabgrass” value (crabgrass; POSTEMERGENCE, Rate 50 g/ha) was 4 and the “Plant response rating, Crabgrass” value (crabgrass; PREEMERGENCE, Rate 50 g/ha) was 2. For the same compound, the “Plant response rating (0 to 10 scale), Crabgrass” value (crabgrass; PREEMERGENCE, Rate 200 g/ha) was 8, the “Plant response rating, Crabgrass” value (crabgrass; Rate 200 g/ha, POSTEMERGENCE) was 5 and the “Plant response rating, Blackgrass” value (blackgrass; POSTEMERGENCE, Rate 50 g/ha) was 4. For the same compound, the “Plant response rating, Blackgrass” value (blackgrass; PREEMERGENCE, Rate 50 g/ha) was 4, the “Plant response rating (0 to 10 scale), Blackgrass” value (blackgrass; PREEMERGENCE, Rate 200 g/ha) was 7 and the “Plant response rating, Blackgrass” value (blackgrass; Rate 200 g/ha, POSTEMERGENCE) was 7. For the same compound, the “Plant response rating, Corn” value (corn; POSTEMERGENCE, Rate 50 g/ha) was 7, the “Plant response rating, Corn” value (corn; PREEMERGENCE, Rate 50 g/ha) was 0 and the “Plant response rating (0 to 10 scale), Corn” value (corn; PREEMERGENCE, Rate 200 g/ha) was 0. The “Plant response rating, Corn” value (corn; Rate 200 g/ha, POSTEMERGENCE) was 9, the “Plant response rating, Sugar beet” value (sugar beet; POSTEMERGENCE, Rate 50 g/ha) was 10 and the “Plant response rating, Sugar beet” value (sugar beet; PREEMERGENCE, Rate 50 g/ha) was 9. The “Plant response rating (0 to 10 scale), Sugar beet” value (sugar beet; PREEMERGENCE, Rate 200 g/ha) was 10, the “Plant response rating, Sugar beet” value (sugar beet; Rate 200 g/ha, POSTEMERGENCE) was 10 and the “Plant response rating, Morningglory” value (morningglory; POSTEMERGENCE, Rate 50 g/ha) was 10. For the same compound, the “Plant response rating, Morningglory” value (morningglory; PREEMERGENCE, Rate 50 g/ha) was 0, the “Plant response rating (0 to 10 scale), Morningglory” value (morningglory; PREEMERGENCE, Rate 200 g/ha) was 10 and the “Plant response rating, Morningglory” value (morningglory; Rate 200 g/ha, POSTEMERGENCE) was 10. The “Plant response rating, Barley” value (barley; POSTEMERGENCE, Rate 50 g/ha) was 3, the “Plant response rating, Barley” value (barley; PREEMERGENCE, Rate 50 g/ha) was 2 and the “Plant response rating (0 to 10 scale), Barley” value (barley; PREEMERGENCE, Rate 200 g/ha) was 0. For the same compound, the “Plant response rating, Barley” value (barley; Rate 200 g/ha, POSTEMERGENCE) was 5, the “Plant response rating, Rice” value (rice; POSTEMERGENCE, Rate 50 g/ha) was 3 and the “Plant response rating, Rice” value (rice; PREEMERGENCE, Rate 50 g/ha) was 0. The “Plant response rating (0 to 10 scale), Rice” value (rice; PREEMERGENCE, Rate 200 g/ha) was 2, the “Plant response rating, Rice” value (rice; Rate 200 g/ha, POSTEMERGENCE) was 6 and the “Plant response rating, Velvetleaf” value (velvetleaf; POSTEMERGENCE, Rate 50 g/ha) was 10. The “Plant response rating, Velvetleaf” value (velvetleaf; PREEMERGENCE, Rate 50 g/ha) was 10, the “Plant response rating (0 to 10 scale), Velvetleaf” value (velvetleaf; PREEMERGENCE, Rate 200 g/ha) was 10 and the “Plant response rating, Velvetleaf” value (velvetleaf; Rate 200 g/ha, POSTEMERGENCE) was 10. The “Plant response rating, Cocklebur” value (cocklebur; POSTEMERGENCE, Rate 50 g/ha) was 8, the “Plant response rating, Cocklebur” value (cocklebur; PREEMERGENCE, Rate 50 g/ha) was 0 and the “Plant response rating (0 to 10 scale), Cocklebur” value (cocklebur; PREEMERGENCE, Rate 200 g/ha) was 0. For the same compound, the “Plant response rating, Cocklebur” value (cocklebur; Rate 200 g/ha, POSTEMERGENCE) was 10, the “Plant response rating, Wheat” value (wheat; PREEMERGENCE, Rate 50 g/ha) was 3 and the “Plant response rating (0 to 10 scale), Wheat” value (wheat; PREEMERGENCE, Rate 200 g/ha) was 4. The “Plant response rating, Wheat” value (wheat; Rate 200 g/ha, POSTEMERGENCE) was 7, the “Plant response rating, Lambsquarter” value (lambsquarters; POSTEMERGENCE, Rate 50 g/ha) was 10 and the “Plant response rating, Lambsquarter” value (lambsquarters; PREEMERGENCE, Rate 50 g/ha) was 10. For the same compound, the “Plant response rating (0 to 10 scale), Lambsquarter” value (lambsquarters; PREEMERGENCE, Rate 200 g/ha) was 10, the “Plant response rating, Lambsquarter” value (lambsquarters; Rate 200 g/ha, POSTEMERGENCE) was 10 and the “Plant response rating, Barnyardgrass” value (barnyardgrass; POSTEMERGENCE, Rate 50 g/ha) was 8. For the same compound, the “Plant response rating, Barnyardgrass” value (barnyardgrass; PREEMERGENCE, Rate 50 g/ha) was 2, the “Plant response rating (0 to 10 scale), Barnyardgrass” value (barnyardgrass; PREEMERGENCE, Rate 200 g/ha) was 6 and the “Plant response rating, Barnyardgrass” value (barnyardgrass; Rate 200 g/ha, POSTEMERGENCE) was 9. For the same compound, the “Plant response rating, Rape” value (rape; POSTEMERGENCE, Rate 50 g/ha) was 8, the “Plant response rating, Rape” value (rape; PREEMERGENCE, Rate 50 g/ha) was 4 and the “Plant response rating (0 to 10 scale), Rape” value (rape; PREEMERGENCE, Rate 200 g/ha) was 9. For the same compound, the “Plant response rating, Rape” value (rape; Rate 200 g/ha, POSTEMERGENCE) was 10, the “Plant response rating, Bedstraw” value (bedstraw; POSTEMERGENCE, Rate 50 g/ha) was 6 and the “Plant response rating, Bedstraw” value (bedstraw; PREEMERGENCE, Rate 50 g/ha) was 2. The “Plant response rating (0 to 10 scale), Bedstraw” value (bedstraw; PREEMERGENCE, Rate 200 g/ha) was 9, the “Plant response rating, Bedstraw” value (bedstraw; Rate 200 g/ha, POSTEMERGENCE) was 9 and the “Plant response rating, Chickweed” value (chickweed; POSTEMERGENCE, Rate 50 g/ha) was 6. The “Plant response rating, Chickweed” value (chickweed; PREEMERGENCE, Rate 50 g/ha) was 6, the “Plant response rating (0 to 10 scale), Chickweed” value (chickweed; PREEMERGENCE, Rate 200 g/ha) was 8 and the “Plant response rating, Chickweed” value (chickweed; Rate 200 g/ha, POSTEMERGENCE) was 10. The “Plant response rating, Nutsedge” value (purple nutsedge; POSTEMERGENCE, Rate 50 g/ha) was 1, the “Plant response rating, Nutsedge” value (purple nutsedge; PREEMERGENCE, Rate 50 g/ha) was 0 and the “Plant response rating (0 to 10 scale), Nutsedge” value (purple nutsedge; PREEMERGENCE, Rate 200 g/ha) was 0. The “Plant response rating, Nutsedge” value (purple nutsedge; Rate 200 g/ha, POSTEMERGENCE) was 2.
